Assay results as given in patent US20170029839A1, “METHOD FOR IMPROVING CROP PRODUCTIVITY” (priority 2013, published 2017).

Legend:
[1] = test system: enzyme encoded by SDG8i (SL-UGT); experiment: UGT enzyme assay (coupled pyruvate kinase/lactate dehydrogenase, NADH absorbance at 340 nm) with N. benthamiana leaf protein extract expressing SDG8i; format: biochemical, Sporobolus stapfianus
Description: UGT was produced in N. benthamiana leaf tissue by transient transfection using a viral-based MagnICON vector system (Icon Genetics GmbH, Halle/Salle, Germany).
Briefly, the UGT coding sequence was amplified from the SDG8i cDNA (Le et al., 2007) and ligated into the MagnICON plasmid. The plasmid was then cultured in Escherichia coli DH5α (ATCC Catalog No 53868) and electroporated into Agrobacterium tumefaciens LBA4404). Subsequently, Nicotiana benthamiana leaves were covered in aluminium foil for 3 days before being co-infiltrated with the plasmid and the apoplast-targeting and intergrase modules of the MagnICON system (Marillonnet et al. 2005). Leaves were then harvested 5 days after the co-infiltration and homogenised in ice-cold protein extraction buffer. Following removal of the insoluble material by centrifugation at 13,000 rpm at 4° C. for 5 minutes, protein assays were carried out with Bio-Rad Protein Assay Dye (Bio-Rad Laboratories Inc, Hercules, Calif., United States of America) using bovine serum albumin (BSA) as reference. Protein extracts were analysed by SDS-PAGE using the standard methods described by Sambrook et al. (1989).
UGT activity was measured using a coupled assay with pyruvate kinase and lactate dehydrogenase with the reaction rate monitored by the change in NADH absorbance at 340 nm (Jackson et al. 2001). Activity in millikatals kg^−1 was calculated using the extinction coefficient […] for NADH. The background activity of the extracts, monitored by the measurement of the rate without substrate addition, was subtracted from the reaction rate.
To investigate the catalytic function of the enzyme encoded by the SDG8i cDNA, the glucosyltransferase activity of N. benthamiana leaf protein extracts infiltrated with a CaMV 35S promoter driven SDG8i construct was tested against a number of substrates and compared with activity in extracts infiltrated with a vector-only control. The assay utilised a linked enzymic reaction as described in the Materials and Methods. […]

Orobanche seeds = experiment: Orobanche germination assay; format: in vivo; conditions: 0.6 ml aqueous solution 0.0001 mg/1, 7 days at 18-20° C. in the dark; seeds with emerged radicle; water control 11%
Description: Orobanche seeds were surface sterilised with 2% sodium hypochlorite containing 0.02% (v/v) of polysorbate 20 surfactant (Tween 20™; Sigma-Aldrich Co LLC, St Louis, Mo., United States of America) for 5 min then rinsed (5×) with sterile ddH2O and dried for 30 min in a laminar air flow cabinet. Subsequently, between 50 and 100 seeds were spread on a sterile […] glass fibre disk and placed in petri dishes (9 cm diameter) lined with filter paper wetted with 3 mL of ddH2O. 1 ml of gibberellic acid (GA3) (30 mg/L) was applied to the seeds and the petri dishes then sealed with parafilm and incubated at 18-20° C. in the dark for preconditioning. After 7 days, surface-sterilised seeds of Arabidopsis W/T, SDG8i transgenics, sorghum and & stapfianus were placed on 5 cm glass microfiber disks and incubated on ¼ MS media with 0.5% sugar and 0.8% agar. For controls, 0.6 ml aqueous solution of synthetic strigolactone analog GR24 (Chiralix B.V., Toernooiveld 1006525 EC Nijmegen, The Netherlands) (0.0001 mg/1) or sterile water was applied to petri dishes with preconditioned Orobanche seeds. The plates were then resealed with parafilm and wrapped with foil and incubated at 18-20° C. for 7 days for germination. Orobanche seed germination was determined under a stereoscopic microscope by counting the number of seeds having an emerged radicle.

[2] = test system: SDG8i promoter-driven GUS reporter (prSDG8i-GUS); experiment: Activation of GUS expression driven by prSDG8i in onion epidermal peels; format: cell-based; conditions: onion peels containing prSDG8i-GUS construct by itself, MJ added to suspension
Text: The promoter sequence (1660 nt) of SDG8i was placed upstream of the GUS reporter gene in a construct designated prSDG8i-GUS. This construct was transiently co-transformed into onion epidermal peels along with the pMDC32:7y or pMDC32:10y constructs which contained either SDG10y or SDG7y under the transcriptional regulation of the CaMV 35S promoter which is constitutively active in onion cells. The formation of a blue precipitate indicates activation of the SDG8i promoter-driven GUS reporter gene by the SDG10y or SDG7y transcription factor constructs.
Agrobacterium-mediated transient transformation was achieved by immersing onion peels in the Agrobacterium suspensions containing these constructs in 10 mM MES buffer (pH 5.5) and 200 μM acetosyringone at 28° C. in the dark for 2/3 days. A 35S:GUS control construct was included in these experiments and the hormone methyl jasmonate (MJ) was also added to some suspensions. After 2 days, the onion peels were soaked in a GUS staining solution and left at 28° C. in the dark. The onion peels were examined every 2 hours to monitor the formation of blue precipitate.

| SMILES | Km ([1]; GR24 as substrate of SDG8i extract, FIG. 1B) [µM] | Vmax ([1]; GR24 as substrate of SDG8i extract, FIG. 1B, method: activity calculated in millikatals kg^-1) | glycosylation activity ([1]; SDG8i extract versus vector-only control, background endogenous NADH oxidase subtracted, FIG. 1A) | Orobanche seed germination (Orobanche seeds) [%] | GUS activity [2] |
| --- | --- | --- | --- | --- | --- |
| CC1=CC(O/C=C2/C(=O)OC3c4ccccc4CC23)OC1=O (centres unmarked) [GR24] | 349 | 5.67 | substantial glycosylation activity | 95 | – |
| CC/C=C\CC1C(=O)CCC1CC(=O)OC (centres unmarked) [MJ, methyl jasmonate] | – | – | – | – | elevated |
